Read-outs that look alike come from different tables or passages of the source.
How the values were obtained:
[1] = Time course experiment of ABTS radical scavenging (temporal change in antioxidant activity); assay type: biochemical; settings: recorded for 2900 seconds at 25°C, 734 nm; saclipin A 0.60 mM, saclipin B 0.18 mM, ascorbic acid 6 µM, Trolox 6 µM
Method: A 7 mM ABTS aqueous solution and a 2.45 mM potassium persulfate aqueous solution were mixed at 25°C for 16 hours in the dark to prepare an ABTS radical solution. The ABTS radical solution was diluted with ethanol such that the absorbance at 734 nm was about 1.0. 50 µL of this diluted ABTS radical solution and 50 µL of the test sample ethanol solution were mixed, and the mixed reactant was held at room temperature for 20 or 40 minutes in the dark, then the absorbance was measured at 734 nm. The final reaction concentration of the sample was adjusted to 0 mM, 0.06 mM, 0.12 mM, 0.18 mM, 0.24 mM, 0.30 mM, 0.60 mM, 1.20 mM, and 1.80 mM. Ascorbic acid and Trolox were used as standard samples. Inhibition rates were calculated using the following equation. Inhibition activity (%) = ((Ab−As)/Ab) × 100 [formula]
Therefore, the temporal change of radical scavenging was measured by a time course experiment. In the time course experiment, the decrease in absorbance after addition of the test sample was recorded continuously for 2900 seconds at 25°C and 734 nm. In the time course experiment, the final reaction concentrations of saclipin A, saclipin B, ascorbic acid, and Trolox were adjusted to 0.60 mM, 0.18 mM, 6 µM, and 6 µM, respectively.

[2] = Measurement of ABTS radical scavenging activity; assay type: biochemical; settings: for IC50: ABTS method, room temperature, dark; for β/α value: IC50 after 40 minutes (β) divided by IC50 after 20 minutes (α), ABTS radical scavenging
Method: To evaluate the antioxidant activity of saclipin A and saclipin B, 2,2-azino-bis(3-ethylbenzothiazoline-6-sulfonic acid) diammonium salt (ABTS) radical scavenging activity was measured.
The ABTS radical solution was diluted with ethanol such that the absorbance at 734 nm was about 1.0. 50 µL of this diluted ABTS radical solution and 50 µL of the test sample ethanol solution were mixed, and the mixed reactant was held at room temperature for 20 or 40 minutes in the dark, then the absorbance was measured at 734 nm. […] Ascorbic acid and Trolox were used as standard samples. Inhibition rates were calculated using the following equation. Inhibition activity (%) = ((Ab−As)/Ab) × 100 [formula]
Here, Ab and As represent the absorbances of the blank sample and the test sample, respectively.

collagen = assay: Collagen anti-glycation assay kit; assay type: biochemical; settings: sample dissolved in DMSO; read-out: IC50 value, inhibition effect on glycation of collagen
Method: (§1) To evaluate the anti-glycation activity of saclipin A and saclipin B, the effect on glycation of elastin and collagen was investigated.
(§2) The effect of saclipin on the glycation of elastin and collagen was evaluated using an elastin anti-glycation assay kit (product number: AAS-AGE-K05, Cosmo Bio Co., Ltd.) and a collagen anti-glycation assay kit (product number: AK71, Cosmo Bio Co., Ltd.), respectively. The assay was performed according to the manufacturer's protocol using saclipin A and saclipin B purified from Suizenji-nori. However, since saclipin was not dissolved in the attached aqueous buffer solution, it was dissolved in dimethyl sulfoxide (DMSO) and subjected to an experiment. The final reaction concentration of the sample was adjusted to 0 mM, 0.5 mM, 1.0 mM, 2.0 mM, and 4.0 mM.

elastin = assay: Elastin anti-glycation assay kit; assay type: biochemical; settings: for IC50: sample dissolved in DMSO, read-out: IC50 value, inhibition effect on the glycation reaction of elastin
Method: as §1, §2

[3] = Absorption spectrum analysis (ultraviolet absorption); assay type: physicochemical; settings: methanol solution; for Molar absorption coefficient: at the absorption maximum
Method: The obtained dried sample was dissolved in methanol, and subjected to absorption spectrum analysis, high-resolution mass spectrometry, and measurement of ^1H and ^13C-NMR spectra. In each graph of Fig. 3, the horizontal axis represents wavelength (nm), and the vertical axis represents relative absorbance.
The absorption spectra of "saclipin A (Sac A)", "saclipin B (Sac B)", "methyl-esterified saclipin A (Sac A_methyl ester)", and "methyl-esterified saclipin B (Sac B_methyl ester)" were acquired by the method described in "2. Structure determination of saclipin A and saclipin B" described above. In each graph of Fig. 11, the horizontal axis represents wavelength (nm), and the vertical axis represents relative absorbance. The maximum point of saclipin A was 317 nm. The maximum point of methyl-esterified saclipin A was 316 nm. The maximum point of saclipin B was 319 nm. The maximum point of methyl-esterified saclipin B was 319 nm.

[4] = test system: neonatal human dermal fibroblasts (NHDF); assay: MTT test on neonatal human dermal fibroblasts (biocompatibility test); assay type: cell-based; settings: compared with 1% ethanol control; for appearance of cells (microphotographs): 10.0 µM; for cytotoxicity (cell viability, MTT): 0.1 to 10.0 µM
Method: (§3) In order to examine the cytotoxicity of saclipin A and saclipin B, MTT tests were performed on (1) neonatal human dermal fibroblasts and (2) human keratinocytes.
(§4) The neonatal human dermal fibroblasts (NHDF) were purchased from ATCC. The neonatal human dermal fibroblasts were seeded in 96-well plates at 1×10^4 cells/well. Neonatal human dermal fibroblasts were cultured overnight at 37°C, 5% CO2 using Dulbecco's modified eagle medium (DMEM) in which 10% fetal bovine serum, […], and 10 mM HEPES were added to DMEM. 0.1 µM, 0.36 µM, 1.0 µM, 3.6 µM, and 10.0 µM of saclipin A or saclipin B were added to each cell. As a control, 1% ethanol was added to the cells. Next, 0.5 mg/mL MTT(3-(4,5-dimethylthiazole-2-yl)-2,5-diphenyltetrazolium bromide) was added, and the mixture was cultured for 20 hours at 37°C, 5% CO2. The whole formazan crystals were dissolved in dimethyl sulfoxide (DMSO), and then the absorbance of each sample solution was measured at 540 nm to determine the cell viability.
(§5) The upper part of Fig. 12 is a graph showing the results of cell viability (%). The labels on the horizontal axis represent each sample corresponding to the bar graph. For example, the labels "saclipin A" "10.00" represent that the cells were treated with 10.0 µM saclipin A. The vertical axis represents the cell viability when the cell viability of cells treated with 1% ethanol is taken as 100%.

PSVK1 cells = assay: MTT test on human keratinocytes (biocompatibility test); assay type: cell-based; settings: compared with 1% ethanol control; for appearance of cells (microphotographs): 10.0 µM; for cytotoxicity (cell viability, MTT): 0.1 to 10.0 µM
Method: as §3, §4
PSVK1 cells (JCRB1093, JCRB Cell Bank, National Institute of Biomedical Innovation, Health and Nutrition, Japan) were used as human keratinocytes. In this test, the test was carried out in the same manner as in "(1) MTT test on neonatal human dermal fibroblasts" described above except that the cells were cultured using a keratinocyte medium (Thermo Fisher Scientific) supplemented with 0.05 mg/mL bovine pituitary extract, 0.005 µg/mL epidermal growth factor, 100 units/mL penicillin, and 100 µg/mL streptomycin (Gibco).
as §5, with “Fig. 13” for “Fig. 12”, “viability (cell viability, %).” for “viability (%).”, “to each” for “to the”

[5] = Photoisomerization by light irradiation, HPLC analysis; assay type: physicochemical; settings: for time for which the amount ratio of saclipin A and saclipin B did not change: dark treatment after light irradiation
Method: Saclipin A purified from dried Suizenji-nori was dissolved in methanol, ethanol or acetonitrile, and the solution was irradiated with light of 6000 lux under a white fluorescent lamp for 24 hours or longer. Thereafter, HPLC analysis was performed under the following measurement conditions to calculate the amounts of saclipin A and saclipin B, and the isomerization rate of saclipin A was calculated. The chromatogram of the saclipin A solution before light irradiation is shown on the left in Fig. 6, and the chromatogram of the saclipin A solution after light irradiation is shown on the right in Fig. 6.
• Detection wavelength: 320 nm • Column: Inerteil ODS-P 3 µm, 4.6×33 + 4.6×150 mm • Eluent: 50% Acetonitrile (isocratic)

[6] = reaction time 20 min, read-out: IC50 value (µM) 20 min
[7] = reaction time 40 min, read-out: IC50 value (µM) 40 min

Compound | IC50 [2, 6] | IC50 [2, 7] | IC50 (collagen) | IC50 (elastin) | Molar absorption coefficient [3] | Absorption maximum [3] | Absorption maximum ([3]; listed as Saclipin A) | appearance of cells (microphotographs) [4] | appearance of cells (microphotographs) (PSVK1 cells) | time for which the amount ratio of saclipin A and saclipin B did not change [5] | dissolved saclipin A converted to saclipin B ([5]; methanol, ethanol or acetonitrile, 6000 lux white fluorescent lamp, 24 hours or longer) | temporal change of radical scavenging [1] | β/α value [2] | cytotoxicity (cell viability, MTT) [4] | cytotoxicity (cell viability, MTT) (PSVK1 cells) | glycation reaction inhibited (elastin) (elastin; concentration of 4 mM)
N=C(N)NN [aminoguanidine, reference compound] | – | – | 2400 µM | 1500 µM | – | – | – | – | – | – | – | – | – | – | – | –
CCC(=O)/C=C/C=C/C=C/C(=O)CCCCCCCC(=O)O [saclipin A, (10E,12E,14E)-9,16-Dioxooctadeca-10,12,14-trienoic acid] | 974 µM | 717 µM | 1900 µM | 2500 µM | 26,454 M^-1cm^-1 | 317 nm | 316 nm | no abnormality was observed | no abnormality was observed | at least 96 hours | About 90% | proceeded even after 2900 seconds | 0.78 | not higher than that of 1% ethanol at any concentration | not higher than that of 1% ethanol at any concentration | –

Second part, led by results:

IC50 [2, 6] | IC50 [2, 7] | IC50 (collagen) | IC50 (elastin) | Molar absorption coefficient [3] | Absorption maximum [3] | Absorption maximum ([3]; listed as Saclipin A) | appearance of cells (microphotographs) [4] | appearance of cells (microphotographs) (PSVK1 cells) | time for which the amount ratio of saclipin A and saclipin B did not change [5] | dissolved saclipin A converted to saclipin B ([5]; methanol, ethanol or acetonitrile, 6000 lux white fluorescent lamp, 24 hours or longer) | Compound | temporal change of radical scavenging [1] | β/α value [2] | cytotoxicity (cell viability, MTT) [4] | cytotoxicity (cell viability, MTT) (PSVK1 cells) | glycation reaction inhibited (elastin) (elastin; concentration of 4 mM)
6.7 µM | 6.7 µM | – | – | – | – | – | – | – | – | – | Cc1c(C)c2c(c(C)c1O)CCC(C)(C(=O)O)O2 (centres unmarked) [Trolox, 6-hydroxy-2,5,7,8-tetramethylchroman-2-carboxylic acid, reference compound] | hardly functioned after a radical scavenging reaction occurred immediately after addition | 1.00 | – | – | –
7.9 µM | 7.5 µM | – | – | – | – | – | – | – | – | – | O=C1O[C@H]([C@@H](O)CO)C(O)=C1O [Ascorbic acid, reference compound] | hardly functioned after a radical scavenging reaction occurred immediately after addition | 0.95 | – | – | –
182 µM | 142 µM | 900 µM | – | 30,555 M^-1cm^-1 | 319 nm | – | no abnormality was observed | no abnormality was observed | at least 96 hours | – | CCC(=O)/C=C/C=C\C=C\C(=O)CCCCCCCC(=O)O [saclipin B, (10E,12Z,14E)-9,16-Dioxooctadeca-10,12,14-trienoic acid] | proceeded even after 2900 seconds | 0.74 | not higher than that of 1% ethanol at any concentration | not higher than that of 1% ethanol at any concentration | about 45%

— patent publication EP4748903A1, “ULTRAVIOLET ABSORBER, ANTIOXIDANT, ANTI-GLYCATION AGENT, EXTERNAL PREPARATION FOR SKIN, COSMETIC, METHOD FOR PRODUCING COMPOUND, AND COMPOUND” (Meijo University, priority 2023, dated 2025)
